Test: Adverse events (CTCAE 4.0) under apatinib plus gefitinib
Format: in vivo, human
[1] = Apatinib 500 mg Cohort (n = 6), with gefitinib 250 mg, treatment‐related AE, patients (%)

N#CC1(c2ccc(NC(=O)c3cccnc3NCc3ccncc3)cc2)CCCC1 [Apatinib]
Abdominal distention, ALL [1]: 0
Abdominal distention, Grade 1–2 [1]: 0
Abdominal distention, Grade 3–4 [1]: 0
Blurred vision, ALL [1]: 1 (16.7%)
Blurred vision, Grade 1–2 [1]: 1 (16.7%)
Blurred vision, Grade 3–4 [1]: 0
Cough, ALL [1]: 1 (16.7%)
Cough, Grade 1–2 [1]: 1 (16.7%)
Cough, Grade 3–4 [1]: 0
Diarrhea, ALL [1]: 4 (66.7%)
Diarrhea, Grade 1–2 [1]: 3 (50.0%)
Diarrhea, Grade 3–4 [1]: 1 (16.7%)
Dizziness, ALL [1]: 1 (16.7%)
Dizziness, Grade 1–2 [1]: 1 (16.7%)
Dizziness, Grade 3–4 [1]: 0
Dry skin, ALL [1]: 1 (16.7%)
Dry skin, Grade 1–2 [1]: 1 (16.7%)
Dry skin, Grade 3–4 [1]: 0
Dysgeusia, ALL [1]: 0
Dysgeusia, Grade 1–2 [1]: 0
Dysgeusia, Grade 3–4 [1]: 0
Eczema, ALL [1]: 0
Eczema, Grade 1–2 [1]: 0
Eczema, Grade 3–4 [1]: 0
Elevated ALT, ALL [1]: 5 (83.3%)
Elevated ALT, Grade 1–2 [1]: 4 (66.7%)
Elevated ALT, Grade 3–4 [1]: 1 (16.7%)
Elevated AST, ALL [1]: 3 (50.0%)
Elevated AST, Grade 1–2 [1]: 3 (50%)
Elevated AST, Grade 3–4 [1]: 0
Epistaxis, ALL [1]: 1 (16.7%)
Epistaxis, Grade 1–2 [1]: 1 (16.7%)
Epistaxis, Grade 3–4 [1]: 0
Fatigue, ALL [1]: 1 (16.7%)
Fatigue, Grade 1–2 [1]: 1 (16.7%)
Fatigue, Grade 3–4 [1]: 0
Gastrointestinal bleeding, ALL [1]: 0
Gastrointestinal bleeding, Grade 1–2 [1]: 0
Gastrointestinal bleeding, Grade 3–4 [1]: 0
HFSR, ALL [1]: 2 (33.3%)
HFSR, Grade 1–2 [1]: 2 (33.3%)
HFSR, Grade 3–4 [1]: 0
Haematuria, ALL [1]: 0
Haematuria, Grade 1–2 [1]: 0
Haematuria, Grade 3–4 [1]: 0
Headache, ALL [1]: 0
Headache, Grade 1–2 [1]: 0
Headache, Grade 3–4 [1]: 0
Hematochezia, ALL [1]: 0
Hematochezia, Grade 1–2 [1]: 0
Hematochezia, Grade 3–4 [1]: 0
Hypertension, ALL [1]: 4 (66.7%)
Hypertension, Grade 1–2 [1]: 3 (50.0%)
Hypertension, Grade 3–4 [1]: 1 (16.7%)
Increased bilirubin, ALL [1]: 1 (16.7%)
Increased bilirubin, Grade 1–2 [1]: 1 (16.7%)
Increased bilirubin, Grade 3–4 [1]: 0
Increased creatinine, ALL [1]: 1 (16.7%)
Increased creatinine, Grade 1–2 [1]: 1 (16.7%)
Increased creatinine, Grade 3–4 [1]: 0
Leukopenia, ALL [1]: 1 (16.7%)
Leukopenia, Grade 1–2 [1]: 1 (16.7%)
Leukopenia, Grade 3–4 [1]: 0
Nausea, ALL [1]: 3 (50.0%)
Nausea, Grade 1–2 [1]: 3 (50.0%)
Nausea, Grade 3–4 [1]: 0
Neutropenia, ALL [1]: 1 (16.7%)
Neutropenia, Grade 1–2 [1]: 1 (16.7%)
Neutropenia, Grade 3–4 [1]: 0
Oulorrhagia, ALL [1]: 0
Oulorrhagia, Grade 1–2 [1]: 0
Oulorrhagia, Grade 3–4 [1]: 0
Paronychia, ALL [1]: 0
Paronychia, Grade 1–2 [1]: 0
Paronychia, Grade 3–4 [1]: 0
Periodontitis, ALL [1]: 0
Periodontitis, Grade 1–2 [1]: 0
Periodontitis, Grade 3–4 [1]: 0
Pharyngalgia, ALL [1]: 0
Pharyngalgia, Grade 1–2 [1]: 0
Pharyngalgia, Grade 3–4 [1]: 0
Pneumonia (non‐interstitial), ALL [1]: 0
Pneumonia (non‐interstitial), Grade 1–2 [1]: 0
Pneumonia (non‐interstitial), Grade 3–4 [1]: 0
Proteinuria, ALL [1]: 4 (66.7%)
Proteinuria, Grade 1–2 [1]: 2 (33.3%)
Proteinuria, Grade 3–4 [1]: 2 (33.3%)
Pruritus, ALL [1]: 1 (16.7%)
Pruritus, Grade 1–2 [1]: 1 (16.7%)
Pruritus, Grade 3–4 [1]: 0
Rash, ALL [1]: 6 (100%)
Rash, Grade 1–2 [1]: 6 (100%)
Rash, Grade 3–4 [1]: 0
Stomatitis, ALL [1]: 0
Stomatitis, Grade 1–2 [1]: 0
Stomatitis, Grade 3–4 [1]: 0
Thrombocytopenia, ALL [1]: 2 (33.3%)
Thrombocytopenia, Grade 1–2 [1]: 2 (33.3%)
Thrombocytopenia, Grade 3–4 [1]: 0
Trachyphonia, ALL [1]: 1 (16.7%)
Trachyphonia, Grade 1–2 [1]: 1 (16.7%)
Trachyphonia, Grade 3–4 [1]: 0
Vomiting, ALL [1]: 2 (33.3%)
Vomiting, Grade 1–2 [1]: 2 (33.3%)
Vomiting, Grade 3–4 [1]: 0
Serious Adverse Event (Patient 007, Apatinib Dose 500 mg, Discontinuation, Correlation with Apatinib Yes, Remission): Hypertension

From paper PMC7403827 (Clinical and Translational Medicine, 2020)
